According to patent US6610502B1, “Compound 2-amino-3-[2-(α-mannopyranosyl)indol-3-yl]propionic acid, process for preparing the same, and method for inspecting function of living body with the novel compound” (Kyowa Medex Co., Ltd., priority 1997, dated 2003):
Where “and” joins values, the source holds several entries; their conditions need not be identical. Identical values can stand only once.

How the values were obtained:
[1] = test system: monoclonal antibody specifically reactive with 2-amino-3-[2-(α-mannopyranosyl)indole-3-yl]propionic acid; assay: Confirming the specificity of the monoclonal antibody (competitive enzyme immunoassay, absorbance at 660 nm); assay type: binding, mouse; conditions: test samples at concentrations not more than 100 μg/ml; plate coated with BSA conjugate
Experimental: First, 50 μl of 2-amino-3-[2-(α-D-mannopyranosyl)indole-3-yl]propionic acid-BSA conjugate solution (20 μg/ml, 0.1M carbonate buffer, pH9.5) was dispensed into a 96-well microtiter plate (available from NUNC) and left to stand at 4° C. overnight. After washing the plate with PBS (×3), 250 μl of 1% BSA/PBS solution was dispensed into the plate and left to stand at room temperature for 1 hour. Then, the plate was washed with PBS (×3) to be used as a reaction plate. Next, 50 μl of 0.1M phosphate buffer (pH 7.4) containing varied concentrations of test sample/0.1% BSA was dispensed into the reaction plate into which 50 μl of the monoclonal antibody prepared in e. Purifying the antibodies above (0.1M phosphate buffer containing l10 ng/ml 0.1% BSA, pH7.4) was added while stirring. The mixture was allowed to react at room temperature for 3 hours. After the reaction was completed, the plate was washed with PBS containing 0.05% Tween 20 (5×), and then 50 μl of POD labeled-anti-mouse immunoglobulins-rabbit IgG (DAKO) was added to the plate for reaction at room temperature for 1 hour. […] Finally, 50 μl of reaction stopper (ethyldiethyldithiocarbamate) was added to the plate of which absorbance was then determined at 660 nm by a microplate reader.

[2] = GFR assay, comparative example: creatinine in the same samples by enzymatic assay kit, clearance (Example 8); assay type: in vivo, human
[3] = Assay of excreted amount in urine, comparative example: creatinine by enzymatic assay kit (Example 9); assay type: in vivo, human; conditions: healthy persons

SMILES	decrease in the absorbance (reaction with the antibody) [1]	creatinine in serum ([2]; Average of 18 subjects) [mg/dL]	creatinine in urine ([2]; Average of 18 subjects) [mg/dL]	creatinine in serum ([2]; individual subjects 1-18, patients with non-renal disease)	creatinine in urine ([2]; individual subjects 1-18, urine stored for 24 hours)	excreted amount in urine, average ([3]; female, age 0-10) [mg/day]	excreted amount in urine, average ([3]; female, age 0-90) [mg/day]	excreted amount in urine, average ([3]; female, age 10-30) [mg/day]	excreted amount in urine, average ([3]; female, age 30-50) [mg/day]	excreted amount in urine, average ([3]; female, age 50-70) [mg/day]	excreted amount in urine, average ([3]; female, age 70-90) [mg/day]	excreted amount in urine, average ([3]; male, age 0-10) [mg/day]	excreted amount in urine, average ([3]; male, age 0-90) [mg/day]	excreted amount in urine, average ([3]; male, age 10-30) [mg/day]	excreted amount in urine, average ([3]; male, age 50-70) [mg/day]	excreted amount in urine, average ([3]; male, age 70-90) [mg/day]
O=C[C@@H](O)[C@@H](O)[C@H](O)[C@H](O)CO (racemic) [DL-mannose]	no decrease															
N[C@@H](Cc1c[nH]c2ccccc12)C(=O)O [L-tryptophan]	no decrease															
CN1CC(=O)NC1=N [creatinine]		0.65	72.12	0.61 mg/dl and 0.80 mg/dl (3×) and 0.50 mg/dl and 0.40 mg/dl (3×) and 0.70 mg/dl (4×) and 0.56 mg/dl and 0.72 mg/dl and 0.63 mg/dl and 0.64 mg/dl and 0.71 mg/dl and 0.84 mg/dl	50.1 mg/dL and 48.9 mg/dL and 21.2 mg/dL and 51.9 mg/dL and 30.5 mg/dL and 70.2 mg/dL and 32.0 mg/dL and 74.1 mg/dL and 48.2 mg/dL and 138.8 mg/dL and 46.5 mg/dL and 100.2 mg/dL and 63.5 mg/dL and 142.0 mg/dL and 88.0 mg/dL and 69.9 mg/dL and 183.1 mg/dL and 39.0 mg/dL	245	559	609	742	684	515	387	833	1066	893	599
